By Kd is commonly meant the equilibrium constant for the complex coming apart.

The structures appear in SMILES notation. The source made the active and inactive calls. The rule behind the calls is not given here.

Chain of Chaperone protein DnaK (Escherichia coli (strain K12)) (P0A6Y8 whole entry, looked up): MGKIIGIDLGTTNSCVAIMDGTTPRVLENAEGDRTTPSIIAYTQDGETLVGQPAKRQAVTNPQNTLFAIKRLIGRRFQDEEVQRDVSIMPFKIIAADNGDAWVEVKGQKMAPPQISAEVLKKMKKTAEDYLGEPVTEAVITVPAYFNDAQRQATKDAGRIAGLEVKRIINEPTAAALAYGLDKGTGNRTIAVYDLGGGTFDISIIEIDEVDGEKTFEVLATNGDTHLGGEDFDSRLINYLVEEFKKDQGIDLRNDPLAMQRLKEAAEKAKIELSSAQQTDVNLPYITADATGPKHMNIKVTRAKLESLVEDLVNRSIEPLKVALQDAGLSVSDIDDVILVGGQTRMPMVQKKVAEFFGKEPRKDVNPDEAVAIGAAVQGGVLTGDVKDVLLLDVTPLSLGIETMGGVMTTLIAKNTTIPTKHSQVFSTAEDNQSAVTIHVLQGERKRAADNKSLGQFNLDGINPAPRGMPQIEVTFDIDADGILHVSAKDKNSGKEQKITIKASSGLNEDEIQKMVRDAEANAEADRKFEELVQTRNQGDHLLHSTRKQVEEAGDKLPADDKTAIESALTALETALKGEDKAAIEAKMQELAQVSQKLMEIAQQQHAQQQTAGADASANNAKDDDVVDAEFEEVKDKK

The test has as its target Chaperone protein DnaK (Escherichia coli (strain K12)) (UniProt P0A6Y8). Description: E. coli DnaK SBD ligand binding – biophysical, NMR, chaperone (AID 1033). The following applies: Purified DnaK SBD.
Consider `Nc1cccnc1Oc1ccc(F)cc1F`, for which the Kd was > 4 mM (inactive).
Next, `COc1cc(O)c2c(c1)C(=O)c1cc(C)cc(O)c1C2=O`: > 4 mM (inactive); `O=C(NCCO)c1ccccc1I`: > 4 mM (inactive); `Cc1cccc(N2C(=O)CCC2=O)n1`: > 4 mM (inactive).
To `Oc1cnc2ccccc2c1CN1CCOCC1` belongs > 4 mM (inactive).
As for `NC(=O)CSc1nnnn1-c1ccccc1`, the Kd was > 4 mM (inactive).
Next, `NC(=O)C1CCN(Cc2ccccc2)CC1`: > 4 mM (inactive); `CS(=O)(=O)Nc1nnc(Cc2ccccc2)s1`: > 4 mM (inactive); `O=C(COc1ccccc1Cl)N1CCCC1`: > 4 mM (inactive).
To `CC(C)NC(=S)NCc1cnn(C)c1` belongs > 4 mM (inactive).
To `O=c1[nH]oc2ccccc12` belongs > 4 mM (inactive).
For `CC(=O)c1nnc2cc(C)nn2c1C`, the Kd is > 4 mM (inactive).
Take `CC(C)CCCC(C)[C@H]1CCC2C3CC=C4C[C@@H](O)CC[C@]4(C)C3CC[C@@]21C` (stereo partly specified): the Kd was > 4 mM (inactive).
As for `NC(=O)CSc1ncnc2ccccc12`, the Kd was > 4 mM (inactive).
Consider `O=C(CN1CCOCC1)Nc1nccs1`, for which the Kd is > 4 mM (inactive).
For `O=C1C2C3CCC(O3)C2C(=O)N1c1ccccc1` (stereo unspecified), the Kd is > 4 mM (inactive).
`Cc1ccc2c(c1)CCCN2C(=O)c1ccncc1`: the Kd was > 4 mM (inactive).
To `Nc1nc2n(c1C(=O)c1ccccc1)CCC2` belongs > 4 mM (inactive); to `Clc1ccccc1OCCn1ccnc1`, > 4 mM (inactive).
On to `CCOC(=O)c1c(C)nc2ccccn12`, for which the Kd was > 4 mM (inactive).
Consider `O=c1ccc2c([nH]1)CCCC2`, for which the Kd is > 4 mM (inactive).
Regarding `O=c1nc(N2CCOCC2)nc2n1CCO2`, the Kd is > 4 mM (inactive).
For `Cc1ccccc1-n1c(-c2cccnc2)n[nH]c1=S`, the Kd is > 4 mM (inactive).
Next, `Nc1n[nH]c(=S)n1-c1ccccc1`: > 4 mM (inactive); `COc1c2c(cc3occ(-c4ccc5c(c4)OCO5)c(=O)c13)OC(C)(C)C=C2`: > 4 mM (inactive); `CN1C(CC(=O)c2ccccc2)CCCC1CC(O)c1ccccc1` (stereo unspecified): > 4 mM (inactive).
To `COc1c(-c2coc3cc4c(cc3c2=O)CC(OC(C)=O)C(C)(C)O4)ccc2c1C=CC(C)(C)O2` (stereo unspecified) belongs > 4 mM (inactive); to `O=C(Nc1ccon1)c1csc2ccccc12`, > 4 mM (inactive).
For `COc1cccc2onc(N)c12`, the Kd is > 4 mM (inactive).
For `COCC(=O)Nc1cccc(Br)c1`, the Kd was > 4 mM (inactive).
For `COc1cc2c(cc1O)[C@@H](Cc1ccc(O)cc1)[N+](C)(C)CC2`, the Kd is > 4 mM (inactive).
In the case of `CS(=O)(=O)Nc1ccccc1C(=O)c1ccccc1`, the Kd is > 4 mM (inactive).
`CCOC(=O)c1c(C)[nH]c2ccc(O)cc12`: the Kd was > 4 mM (inactive).
To `Cc1cc(=O)c2c(O)c(C)c(O)cc2o1` belongs > 4 mM (inactive); to `CC(=O)OCc1cc(=O)n(C)c(=O)n1C`, > 4 mM (inactive); to `COC(=O)c1sccc1S(=O)(=O)N1CCCC1`, > 4 mM (inactive).
As to `CNC(=O)c1ccc([N+](=O)[O-])cc1Cl`, the Kd was > 4 mM (inactive).
In the case of `O=C(Nc1ccc2ccccc2c1)c1cnccn1`, the Kd was > 4 mM (inactive).
For the molecule `Cc1nn(-c2ccccc2)nc1CN`, the Kd is > 4 mM (inactive).
As to `Cc1cc(=O)oc2c1c(C)nn2CN1CCN(C)CC1`, the Kd is > 4 mM (inactive).
Take `Cc1cc(C)c(NC(=O)CN2CCC(O)CC2)c(C)c1`: the Kd was > 4 mM (inactive).
In the case of `Cc1ccc(C(=O)CS(C)(=O)=O)cc1`, the Kd was > 4 mM (inactive).
In the case of `COc1c2occc2c(OC)c2c(=O)cc(C)oc12`, the Kd was > 4 mM (inactive).
In the case of `S=c1[nH]c2cccnc2[nH]1`, the Kd was > 4 mM (inactive).
On to `NC(N)=NCCCCN=C(N)N`, for which the Kd is > 4 mM (inactive).
Next, `O=CN1CCN(C(=O)c2ccco2)CC1`: > 4 mM (inactive); `Nc1cc(=O)[nH]c(=O)n1-c1ccccc1`: > 4 mM (inactive).
For the molecule `OC1CC(c2ccccc2)NC2(CCCC2)C1` (stereo unspecified), the Kd was > 4 mM (inactive).
Take `CC(=O)Nc1ccc(C(=O)NC2CCSC2=O)cc1` (stereo unspecified): the Kd was > 4 mM (inactive).
Take `COc1cccc(-c2csc(NC(C)=O)n2)c1`: the Kd was > 4 mM (inactive).
Next, `NCc1ccc(-c2cccs2)cc1`: > 4 mM (inactive); `CN1CCC(NC(=O)Cc2c(F)cccc2Cl)CC1`: > 4 mM (inactive).
As for `CCOC12NC(=O)CC(=O)N1C(c1ccccc1)=CS2` (stereo unspecified), the Kd is > 4 mM (inactive).
For `COc1ccc(-c2noc(-c3ccco3)n2)cc1OC`, the Kd is > 4 mM (inactive).
To `CC1(C)CC(=O)c2sc(N)nc2C1` belongs > 4 mM (inactive); to `O=C(O)c1ccc(-n2cccn2)cc1`, > 4 mM (inactive); to `CC(=O)Oc1c2c(c(CC=C(C)C)c3c1C(=O)C1=C[C@@H]4CC5C(C)(C)OC(C/C=C(\C)C(=O)O)(C4=O)[C@@]15O3)OC(C)(CCC=C(C)C)C=C2` (stereo partly specified), > 4 mM (inactive).
For `Cc1nnc(SCc2ccc(F)cc2)s1`, the Kd is > 4 mM (inactive).
Regarding `Cn1c(=O)c2[nH]c(Nc3ccccc3)nc2n(C)c1=O`, the Kd is > 4 mM (inactive).
Take `NC(=O)c1cccc2c(=O)oc3ccccc3c12`: the Kd was > 4 mM (inactive).
For the molecule `COc1ccc(-c2cc(=O)c3cc(OC)ccc3o2)cc1`, the Kd is > 4 mM (inactive).
Turning to `c1cc2n(c1)CCNC2c1ccncc1` (stereo unspecified), the Kd is > 4 mM (inactive).
As to `Nc1ccc2c(C(F)(F)F)cc(=O)oc2c1`, the Kd is > 4 mM (inactive).
Next, `COc1cccc(/C=N/N=C2/NC(=O)CS2)c1`: > 4 mM (inactive); `O=C(O)Cn1cc(C(F)(F)F)ccc1=O`: > 4 mM (inactive).
As to `COc1cccc(S(=O)(=O)Nc2cccnc2)c1`, the Kd is > 4 mM (inactive).
Consider `Cc1ccc(N2C(=O)CCC2=O)cc1`, for which the Kd is > 4 mM (inactive).
For the molecule `Cc1ccc(C)n1/N=C1\NC(=O)CS1`, the Kd is > 4 mM (inactive).
For the molecule `Cc1cc(NC(=O)c2cc(C)on2)no1`, the Kd was > 4 mM (inactive).
Turning to `c1cnc(N2CCSCC2)nc1`, the Kd is > 4 mM (inactive).
Regarding `COC(=O)c1cnccc1C(F)(F)F`, the Kd was > 4 mM (inactive).
Take `O=C1NC(=O)/C(=C\c2ccco2)S1`: the Kd was > 4 mM (inactive).
As to `Cc1cc(N2CCCC2=O)c(N)cc1N`, the Kd is > 4 mM (inactive).
To `CCc1c(C(=O)N2CCOCC2)csc1C` belongs > 4 mM (inactive); to `c1ccc2[nH]c(CCn3cncn3)nc2c1`, > 4 mM (inactive).
Consider `CC(C)NS(=O)(=O)c1ccc(N)cc1`, for which the Kd was > 4 mM (inactive).
As to `c1ccc(Cc2nn3c(-c4ccncc4)nnc3s2)cc1`, the Kd is > 4 mM (inactive).
Consider `OC1CSc2ncnn2C1` (stereo unspecified), for which the Kd was > 4 mM (inactive).
Take `NC(=O)c1ccc(-c2ccccn2)s1`: the Kd was > 4 mM (inactive).
`CN1C(=O)c2ccc(C(=O)NC3CCCCC3)cc2C1=O`: the Kd was > 4 mM (inactive).
To `CN1CCCCC1c1ccc(-c2cccnc2)nc1` (stereo unspecified) belongs > 4 mM (inactive).
Regarding `CC(=O)c1cccc(NS(=O)(=O)N(C)C)c1`, the Kd was > 4 mM (inactive).
For `O=C(Nc1nc2ccccc2s1)c1ccc(=O)[nH]n1`, the Kd is > 4 mM (inactive).
Regarding `Cc1cc(C(=O)N2CCN(S(C)(=O)=O)CC2)cs1`, the Kd is > 4 mM (inactive).
On to `Cc1occc1C(=O)Nc1nnc(C(F)(F)F)s1`, for which the Kd was > 4 mM (inactive).
For `Cc1cccc(N2CCN(C(=O)c3ccncc3)CC2)c1C`, the Kd was > 4 mM (inactive).
In the case of `Cc1ccc(-n2ncc(C#N)c2/N=C/N(C)C)cc1`, the Kd was > 4 mM (inactive).
As to `O=C1CN(C(=O)c2ccccc2F)c2ccccc2N1`, the Kd was > 4 mM (inactive).
Next, `CC(=O)O[C@H]1C[C@@H](OC(C)=O)C(C)(C)C2C[C@@H](OC(C)=O)[C@]3(C)C(CC[C@@]4(C)[C@H](c5ccoc5)OC(=O)[C@H]5O[C@]543)[C@]21C` (stereo partly specified): > 4 mM (inactive).
Consider `Cc1onc(-c2ccccc2)c1CO`, for which the Kd was > 4 mM (inactive).
As to `Cc1ccc(NC(=O)CN2C(=O)CSC2=O)cc1`, the Kd is > 4 mM (inactive).
To `O=C(CSc1ccnc(=O)[nH]1)NCc1ccco1` belongs > 4 mM (inactive); to `O=C(O[C@@H]1Cc2c(O)cc(O)cc2O[C@@H]1c1cc(O)c(O)c(O)c1)c1cc(O)c(O)c(O)c1`, > 4 mM (inactive); to `Cc1nnc(N2CCN(Cc3ccccc3)CC2)[nH]c1=O`, > 4 mM (inactive).
For the molecule `O=C(Nc1nnc(-c2ccco2)o1)C1=COCCO1`, the Kd was > 4 mM (inactive).
Regarding `OCc1ccc(CN2CCOCC2)cc1`, the Kd is > 4 mM (inactive).
Next, `O=S(=O)(O)c1nc2ccccc2[nH]1`: > 4 mM (inactive).
In the case of `O=C1COc2cc(O)ccc21`, the Kd was > 4 mM (inactive).
With `CCn1c(-c2ccccc2)n[nH]c1=S`, the Kd was > 4 mM (inactive).
Consider `CC(=O)OC1CCC2(O)CC1(C)CCC1C2CC1(C)C` (stereo unspecified), for which the Kd is > 4 mM (inactive).
With `Cn1ncc(NC(=O)Nc2ccc(F)cc2F)c1C(N)=O`, the Kd was > 4 mM (inactive).
To `Nc1cc(F)cc(F)c1` belongs > 4 mM (inactive); to `CCOC(=O)c1cnn2ccccc12`, > 4 mM (inactive); to `O=C1NC(=S)N/C1=C\c1cccnc1`, > 4 mM (inactive).
For the molecule `Cc1ccccc1CSc1nnc(C)n1N`, the Kd is > 4 mM (inactive).
Consider `Nc1cccc(NC(=O)c2ccco2)c1`, for which the Kd was > 4 mM (inactive).

The record behind these values is PubChem BioAssay AID1033 (Sanford-Burnham Center for Chemical Genomics, 2008).
